These results are taken from patent publication US8933056B2, “Soft protease inhibitors and pro-soft forms thereof” (Trustees of Tufts College, priority 2005, dated 2015).

Assay [1] has as its target DPPIV (Homo sapiens (Human), UniProt P27487). The assay can be described thus: DPIV inhibition assay (Examples 2 and 3). The class given is biochemical. The following applies: for DPPIV Ratio: IC50 pH 7.8 to pH 2. As to the method: (§1) The inhibitor solution is prepared by dissolving 3-5 mg of inhibitor in pH 2 solution (0.01 N HCl), such that the concentration of the solution is equal to 1 mg/10 mL. A 10 μL sample of this solution is then added to 990 μL of pH 8 buffer (0.1 M HEPES, 0.14 M NaCl), and the solution is allowed to stand at room temperature overnight.
(§2) The substrate solution is prepared by dissolving 2.0 mg of L-alanyl-L-proline-para-nitroanilide into 20 mL of pH 8 buffer.
(§3) 250 μL of enzyme solution is added to well #B1 to #H1, #A2 to #H2, and #A3 to #H3 of a 96 well plate, while well #A1 receives 250 μL of pH 8 buffer instead of enzyme solution.
(§4) A 1:10 dilution is then performed by adding inhibitor solution to #A5 and the solution is mixed well before transferring 10 μL of this solution from #A5 to #B5. The solution in #B5 is then mixed well before transferring 10 μL of this solution from #B5 to #C5. The solution in #C5 is then mixed well before transferring 10 μL of this solution from #C5 to #D5. The solution in #D5 is then mixed well before transferring 10 μL of this solution from #D5 to #E5. The solution in #E5 is then mixed well before transferring 10 μL of this solution from #E5 to #F5. The solution in #F5 is then mixed well before transferring 10 μL of this solution from #F5 to #G5. The solution in #G5 is then mixed well before transferring 10 μL of this solution from #G5 to #H5.
(§5) A 30 μL aliquot is then transferred from #H5 to #H3 for row H, and the contents are mixed well. The analogous procedure is repeated for rows G, F, E, D, C, B, and A sequentially. The plate is then shaken on a plate shaker for 5 min before allowing the plate to incubate at room temperature for an additional 5 min.
(§6) Once the plate has been allowed to incubate, 30 μL of substrate is added to each well except well #A1. […] The absorbance is then immediately read at a wavelength of 410 nm.
(§7) In this example, the assay is conducted for DPIV and DP8 or DP9. The ratio of IC50 values for each tested compound is calculated in order to determine the selectivity for the DPIV isoform. […]

Assay [2] addresses DP8 (Homo sapiens (Human), UniProt Q6V1X1). Nature of the assay: Selectivity for dipeptidyl peptidase isoforms, DP8. The conditions noted are these: for DP8 Ratio: IC50 pH 7.8 to pH 2. It is filed as biochemical. Here is the method:
as §1, §2, §3, §4, §5, §6, §7

The target of assay [3] is DP9 (Homo sapiens (Human), UniProt Q86TI2). The assay can be described thus: Selectivity for dipeptidyl peptidase isoforms, DP9. The class given is biochemical. The conditions noted are these: for DP9 Ratio: IC50 pH 7.8 to pH 2. As to the method: as §1, §2, §3, §4, §5, §6, §7
Chain of DP9 (Q86TI2 whole entry, species assumed, canonical isoform): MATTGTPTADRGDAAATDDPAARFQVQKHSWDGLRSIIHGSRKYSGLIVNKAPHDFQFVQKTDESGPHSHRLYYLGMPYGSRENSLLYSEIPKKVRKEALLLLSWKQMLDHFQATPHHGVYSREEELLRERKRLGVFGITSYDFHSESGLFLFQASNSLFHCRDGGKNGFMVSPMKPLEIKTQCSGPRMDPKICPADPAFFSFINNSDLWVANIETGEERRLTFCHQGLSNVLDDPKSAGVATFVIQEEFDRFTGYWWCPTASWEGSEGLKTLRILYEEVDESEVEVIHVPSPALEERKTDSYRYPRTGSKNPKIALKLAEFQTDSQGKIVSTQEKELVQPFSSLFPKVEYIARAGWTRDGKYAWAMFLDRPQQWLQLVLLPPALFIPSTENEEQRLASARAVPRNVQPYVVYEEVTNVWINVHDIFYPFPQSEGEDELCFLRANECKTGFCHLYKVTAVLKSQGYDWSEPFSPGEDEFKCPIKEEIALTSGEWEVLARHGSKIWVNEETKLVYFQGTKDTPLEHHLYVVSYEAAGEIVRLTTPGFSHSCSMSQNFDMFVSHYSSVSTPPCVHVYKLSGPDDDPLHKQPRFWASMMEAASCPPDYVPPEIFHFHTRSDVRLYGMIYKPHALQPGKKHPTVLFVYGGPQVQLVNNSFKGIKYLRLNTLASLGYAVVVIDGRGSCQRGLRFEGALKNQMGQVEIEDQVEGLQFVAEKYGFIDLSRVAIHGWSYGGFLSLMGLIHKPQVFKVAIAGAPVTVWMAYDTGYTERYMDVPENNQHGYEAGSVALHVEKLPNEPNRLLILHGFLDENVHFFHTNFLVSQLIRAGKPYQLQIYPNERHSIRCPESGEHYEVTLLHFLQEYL
In assay [4] the target is DP-IV (Sus scrofa (Pig), UniProt P22411). The assay can be described thus: DPP IV inhibition: thioxamide v. oxoamide. The class given is biochemical, porcine. The following applies: for Inactivation Index: IC50 pH 8.0 to pH 2.0. As to the method: The inhibitory activity of a compound may be tested easily. […] A compound is then screened for its ability to inhibit the protease activity of DP-IV with respect to a […] substrate. […] Briefly, a reaction containing 50 micromol sodium Hepes (pH 7.8), 10 micromol Ala-Pro-p-nitroanilide, 6 milliunits of DP-IV, and 2% (vol/vol) dimethylformamide in a total volume of 1.0 mL. The reaction was initiated by the addition of enzyme and reaction rates were measured at 25 C; formation of reaction product (para-nitroanilide) in the presence and absence of a test compound can be detected photometrically, e.g., at 410 nm.
Chain of DP-IV (P22411 whole entry): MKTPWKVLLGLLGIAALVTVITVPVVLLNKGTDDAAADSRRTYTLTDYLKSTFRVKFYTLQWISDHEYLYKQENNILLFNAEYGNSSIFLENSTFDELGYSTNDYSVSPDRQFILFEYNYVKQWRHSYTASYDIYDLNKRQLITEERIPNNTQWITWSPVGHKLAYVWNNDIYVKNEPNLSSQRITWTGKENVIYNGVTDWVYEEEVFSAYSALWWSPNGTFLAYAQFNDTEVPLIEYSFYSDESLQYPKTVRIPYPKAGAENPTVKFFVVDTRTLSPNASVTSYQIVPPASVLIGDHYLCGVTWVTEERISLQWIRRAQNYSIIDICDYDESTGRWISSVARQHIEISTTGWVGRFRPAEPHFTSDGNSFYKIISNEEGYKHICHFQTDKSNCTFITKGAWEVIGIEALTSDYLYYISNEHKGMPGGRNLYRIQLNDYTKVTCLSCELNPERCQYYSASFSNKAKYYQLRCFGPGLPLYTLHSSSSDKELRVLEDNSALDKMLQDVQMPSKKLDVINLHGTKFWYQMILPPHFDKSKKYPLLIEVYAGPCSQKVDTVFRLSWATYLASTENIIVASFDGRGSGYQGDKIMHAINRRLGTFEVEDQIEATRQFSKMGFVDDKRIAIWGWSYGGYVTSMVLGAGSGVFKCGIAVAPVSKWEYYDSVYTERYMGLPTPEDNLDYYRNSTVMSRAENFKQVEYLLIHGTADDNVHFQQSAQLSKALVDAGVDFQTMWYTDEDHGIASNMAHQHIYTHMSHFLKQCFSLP

Assay [5] addresses Proteasome (Homo sapiens, UniProt P28074). The assay can be described thus: X-boroLeu proteasome inhibition: thioxamide v. oxoamide. It is filed as biochemical. The following applies: IC50 ph 7.6 to ph 2.0.
[6] abbreviates: pH 2, read-out: IC50s DPPIV pH 2.
[7] abbreviates: pH 7.8, read-out: IC50s DPPIV pH 7.8.
[8] abbreviates: pH 7.8, read-out: IC50s DP8 pH 7.8.
[9] abbreviates: pH 7.8, read-out: IC50s DP9 pH 7.8.
The mark [10] stands for this setting: pH 2.0, read-out: IC50 (pH 2.0).
Setting [11] is: pH 8.0, read-out: IC50 (pH 8.0).

Where two headings read alike, the source gives them in different places.

Chain of DPPIV (P27487 whole entry, species assumed): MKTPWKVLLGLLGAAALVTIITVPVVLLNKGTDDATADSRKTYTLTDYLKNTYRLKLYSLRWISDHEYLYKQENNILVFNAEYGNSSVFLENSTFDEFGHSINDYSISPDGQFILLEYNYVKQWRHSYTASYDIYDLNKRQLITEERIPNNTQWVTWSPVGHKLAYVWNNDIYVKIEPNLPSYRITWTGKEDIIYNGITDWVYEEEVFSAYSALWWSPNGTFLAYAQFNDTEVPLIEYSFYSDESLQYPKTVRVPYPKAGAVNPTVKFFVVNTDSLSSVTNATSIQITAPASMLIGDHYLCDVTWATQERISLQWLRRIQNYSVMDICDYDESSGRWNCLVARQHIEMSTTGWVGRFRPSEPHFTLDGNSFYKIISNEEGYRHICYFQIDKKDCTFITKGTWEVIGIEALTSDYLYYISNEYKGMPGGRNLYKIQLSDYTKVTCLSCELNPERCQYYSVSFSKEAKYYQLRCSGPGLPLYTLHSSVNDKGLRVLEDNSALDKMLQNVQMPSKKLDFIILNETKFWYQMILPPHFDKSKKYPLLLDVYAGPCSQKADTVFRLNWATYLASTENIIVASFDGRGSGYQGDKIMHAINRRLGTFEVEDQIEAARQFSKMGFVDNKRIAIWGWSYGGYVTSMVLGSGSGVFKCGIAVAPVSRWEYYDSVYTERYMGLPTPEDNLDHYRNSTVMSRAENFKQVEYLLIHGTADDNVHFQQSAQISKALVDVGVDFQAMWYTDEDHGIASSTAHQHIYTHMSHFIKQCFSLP
Chain of DP8 (Q6V1X1 whole entry, species assumed, canonical isoform): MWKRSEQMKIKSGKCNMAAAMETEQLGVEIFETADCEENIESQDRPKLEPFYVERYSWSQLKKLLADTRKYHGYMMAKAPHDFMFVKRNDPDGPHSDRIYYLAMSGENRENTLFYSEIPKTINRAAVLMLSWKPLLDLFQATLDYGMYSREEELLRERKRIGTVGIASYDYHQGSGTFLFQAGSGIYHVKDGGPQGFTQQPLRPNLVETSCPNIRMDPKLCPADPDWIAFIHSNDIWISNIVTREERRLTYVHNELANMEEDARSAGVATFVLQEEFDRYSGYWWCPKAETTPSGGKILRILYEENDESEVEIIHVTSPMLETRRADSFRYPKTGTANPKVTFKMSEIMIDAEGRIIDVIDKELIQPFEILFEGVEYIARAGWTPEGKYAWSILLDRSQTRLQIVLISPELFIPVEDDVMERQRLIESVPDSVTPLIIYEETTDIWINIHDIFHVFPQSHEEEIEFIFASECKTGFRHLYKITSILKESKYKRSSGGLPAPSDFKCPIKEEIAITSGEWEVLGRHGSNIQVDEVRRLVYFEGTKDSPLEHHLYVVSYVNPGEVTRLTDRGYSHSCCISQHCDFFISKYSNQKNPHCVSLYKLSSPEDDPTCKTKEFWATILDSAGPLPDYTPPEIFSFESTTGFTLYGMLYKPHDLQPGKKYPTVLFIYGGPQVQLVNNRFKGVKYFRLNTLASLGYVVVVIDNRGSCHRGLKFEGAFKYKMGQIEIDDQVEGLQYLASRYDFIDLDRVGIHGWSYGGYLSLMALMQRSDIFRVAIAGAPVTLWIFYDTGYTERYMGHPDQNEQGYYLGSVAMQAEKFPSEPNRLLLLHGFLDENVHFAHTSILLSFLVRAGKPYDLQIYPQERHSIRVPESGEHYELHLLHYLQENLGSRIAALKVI
Chain of Proteasome (P28074 60-263 limits assumed): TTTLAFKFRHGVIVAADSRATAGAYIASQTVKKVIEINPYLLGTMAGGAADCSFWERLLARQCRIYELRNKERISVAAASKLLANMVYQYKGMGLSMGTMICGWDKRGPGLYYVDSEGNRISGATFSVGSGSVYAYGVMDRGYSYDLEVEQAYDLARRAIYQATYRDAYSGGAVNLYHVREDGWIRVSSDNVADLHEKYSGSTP

On to `N[C@@H](CCC(=O)O)C(=S)N1CCC[C@H]1B(O)O` [Glu-boroPro Thioxamide], for which the “DPPIV Ratio” value in assay [1] was 190. Besides, the IC50 worked out at 4.6 nM in assay [1] (setting [6]); 890 nM in assay [1] (setting [7]); 16 nM in assay [2] (pH 2, read-out: IC50s DP8 pH 2); 2000 nM in assay [2] (setting [8]); 8.7 nM in assay [3] (pH 2, read-out: IC50s DP9 pH 2); 1800 nM in assay [3] (setting [9]). Also, the IC50 amounted to 4.6 nM in assay [4] (setting [10]) and 890 nM in assay [4] (setting [11]). The “DP8 Ratio” value in assay [2] stood at 130. For the same compound, the “Ratio DPP8 to DPIV (pH 2)” value in assay [2] (pH 2) stood at 3.4. For the same compound, the “DP9 Ratio” value in assay [3] is listed as 180. Besides, in assay [3] (pH 2), the “Ratio DP9 To DPIV (pH 2)” value turned out to be 1.9. For the same compound, in assay [4], the “Inactivation Index” value was 190.
As to `O=C([C@@H]1CCCN1)N1CCC[C@H]1B(O)O` [Pro-boroPro, reference compound], the “Inactivation Index” value in assay [4] was 21,000. For the same compound, the IC50 in assay [4] (setting [10]) stood at 1.1 nM; in assay [4] (setting [11]), 23000 nM.
With `CC(C)C[C@H](NC(=S)CN)B(O)O` [Gly-boroLeu Thioxamide], in assay [5], the “Inactivation Index” value is reported as 20.
Still for that read-out and setting: with `CC(C)C[C@H](NC(=S)[C@H](C)N)B(O)O` [Ala-boroLeu Thioxamide] the figure was 110.
With `N[C@@H](CCCC(=O)O)C(=S)N1CCC[C@H]1B(O)O` [Aad-boroPro Thioxamide], in assay [4], the “Inactivation Index” value is reported as 12,000. Besides, the IC50 is 1.6 nM in assay [4] (setting [10]) and 19000 nM in assay [4] (setting [11]).
In the case of `O=C(CNCc1ccccc1)N1CCC[C@H]1B(O)O` [N-(Benzyl)-Gly-boroPro, reference compound], the “Inactivation Index” value in assay [4] is 7,300. Also, the IC50 came to 9.5 nM in assay [4] (setting [10]) and 69000 nM in assay [4] (setting [11]).
On the same counts, the results for `N[C@@H](CCCC(=O)O)C(=O)N1CCC[C@H]1B(O)O` [Aad-boroPro, reference compound] are 1,600, 4.5 nM and 7400 nM.
With `CC(C)C[C@H](NC(=S)[C@@H](N)Cc1ccccc1)B(O)O` [Phe-boroLeu Thioxamide], in assay [5], the “Inactivation Index” value is given as 20.
Same read-out and setting: with `CC(C)C[C@H](NC(=S)[C@@H](N)CC(=O)O)B(O)O` [Asp-boroLeu Thioxamide] the figure was 2.2.
As for Pro-boroAla (thioxam), the “DPPIV Ratio” value in assay [1] amounted to 4.1. The IC50 in assay [1] (setting [6]) is 76 nM; in assay [1] (setting [7]), 310 nM; in assay [2] (pH 2, read-out: IC50s DP8 pH 2), 140 nM; in assay [2] (setting [8]), 310 nM; in assay [3] (pH 2, read-out: IC50s DP9 pH 2), 85 nM; in assay [3] (setting [9]) it was 110 nM. The “DP8 Ratio” value in assay [2] turned out to be 2.2. For the same compound, the “Ratio DPP8 to DPIV (pH 2)” value in assay [2] (pH 2) came out at 1.8. The “DP9 Ratio” value in assay [3] was found to be 1.3. For the same compound, the “Ratio DP9 To DPIV (pH 2)” value in assay [3] (pH 2) worked out at 1.1.
Take `N=C(N)NCCC[C@H](N)C(=S)N1CCC[C@H]1B(O)O` [Arg-boroPro Thioxamide]: the IC50 in assay [4] (setting [10]) came to 1.2 nM. Besides, in assay [4] (pH 8.0, result in words), the “IC50 (pH 8.0)” value is “No inhibition”.
On to `C[C@H](NC(=S)[C@H](C)N)B(O)O` [Ala-boroAla Thioxamide], for which the “Inactivation Index” value in assay [4] is 1.2. The IC50 in assay [4] (setting [10]) is 6500 nM; in assay [4] (setting [11]), 7700 nM.
`N[C@@H](CC(=O)O)C(=S)N1CCC[C@H]1B(O)O` [Asp-boroPro Thioxamide]: the “Inactivation Index” value in assay [4] is 1,700. Also, the results for the IC50 in assay [4] (setting [10]) and in assay [4] (setting [11]) were 17 nM and 28000 nM, respectively.
Consider `N[C@H](C(=S)N1CCC[C@H]1B(O)O)C1CCCCC1` [Chg-boroPro Thioxamide], for which, in assay [4], the “Inactivation Index” value is 2,300. The IC50 in assay [4] (setting [10]) is 4 nM; in assay [4] (setting [11]) it was 9000 nM.
Take `CC(C)C[C@H](NC(=O)[C@H](C)N)B(O)O` [Ala-boroLeu, reference compound]: the “Inactivation Index” value in assay [5] turned out to be 3.2.
For the compound `O=C(CNC12CC3CC(CC(O)(C3)C1)C2)N1CCC[C@H]1B(O)O` [NVP-LAF237 analogue, reference compound], the “Inactivation Index” value in assay [4] was found to be 1.7. For the same compound, the IC50 in assay [4] (setting [10]) came out at 42 nM; in assay [4] (setting [11]), 72 nM.
On the same counts, the results for `C[C@H](NC(=O)[C@H](C)N)B(O)O` [Ala-boroAla, reference compound] are 7.0, 63 nM and 440 nM.
For the compound `CC(C)C[C@H](NC(=S)CNC(=S)c1cnccn1)B(O)O` [Pyz-Gly-boroLeu Perthioxamide], in assay [5], the “Inactivation Index” value turned out to be 620.
Consider `CC(C)C[C@H](NC(=S)CNC(=O)c1cnccn1)B(O)O` [N-(Pyrazine-2-carbonyl)-Gly-boroLeu Thioxamide], for which the “Inactivation Index” value in assay [5] amounted to 3.8.
In the case of `N=C(N)NCCC[C@H](N)C(=O)N1CCC[C@H]1B(O)O` [Arg-boroPro, reference compound], the “Inactivation Index” value in assay [4] is on record as 3,900. The results for the IC50 in assay [4] (setting [10]) and in assay [4] (setting [11]) were 1.8 nM and 7100 nM, respectively.
On the same counts, the results for `N[C@@H](Cc1c[nH]c2ccccc12)C(=S)N1CCC[C@H]1B(O)O` [Trp-boroPro Thioxamide] are 440, 1.6 nM and 700 nM.
On the same counts, the results for `NCC(=S)N1CCC[C@H]1B(O)O` [Gly-boroPro Thioxamide] are 630, 3 nM and 1900 nM.
The matching figures for `N[C@@H](CCC(=O)O)C(=O)N1CCC[C@H]1B(O)O` [Glu-boroPro, reference compound]: 500, 6 nM and 3000 nM.
For the compound `N[C@@H](Cc1c[nH]c2ccccc12)C(=O)N1CCC[C@H]1B(O)O` [Trp-boroPro, reference compound], the “Inactivation Index” value in assay [4] was 1500. Besides, the results for the IC50 in assay [4] (setting [10]) and in assay [4] (setting [11]) were 2 nM and 3000 nM, respectively.
With `OB(O)[C@@H]1CCCN1C(=S)CNC12CC3CC(CC(O)(C3)C1)C2` [NVP-LAF237 analogue Thioxamide], the “Inactivation Index” value in assay [4] stood at 250. Further, the values for the IC50 in assay [4] (setting [10]) and in assay [4] (setting [11]) were 160 nM and 40000 nM, respectively.
`OB(O)[C@@H]1CCCN1C(=S)CNCc1ccccc1` [N-(Benzyl)-Gly-boroPro Thioxamide]: the “Inactivation Index” value in assay [4] came out at 7.1. Also, the IC50 in assay [4] (setting [10]) came to 24 nM; in assay [4] (setting [11]), 170 nM.
As for `CC(C)C[C@H](NC(=O)CN)B(O)O` [Gly-boroLeu, reference compound], in assay [5], the “Inactivation Index” value amounted to 11.
In the case of `CC(C)[C@H](N)C(=S)N[C@@H](C)B(O)O` [Val-boroAla Thioxamide], the “Inactivation Index” value in assay [4] turned out to be 3.0. Also, the IC50 in assay [4] (setting [10]) amounted to 73 nM; in assay [4] (setting [11]) it was 220 nM.
On to `CC(C)C[C@H](NC(=O)[C@@H](N)Cc1ccccc1)B(O)O` [Phe-boroLeu (free Velcade), Phe-boroLeu, reference compound], for which the “Inactivation Index” value in assay [5] came out at 7.5.
For the compound Chg-boroPro [reference compound], the “Inactivation Index” value in assay [4] amounted to 380. The IC50 is 1 nM in assay [4] (setting [10]) and 380 nM in assay [4] (setting [11]).
On the same counts, the results for `NCC(=O)N1CCC[C@H]1B(O)O` [Gly-boroPro, reference compound] are 7,000, 1 nM and 7000 nM.
Take `CC(C)C[C@H](NC(=O)CNC(=S)c1cnccn1)B(O)O` [N-(Pyrazine-2-carbothio)-Gly-boroLeu]: the “Inactivation Index” value in assay [5] was 4.5.
